PubChem BioAssay AID196 (DTP/NCI, 2004)
Several values for one entry are separate records, joined by “and”; a condition that tells them apart may be missing. Equal values may be shown once. Inconclusive results and toxic doses are left out.

Test system: BDF1 mice, intracerebral B16 melanoma, median survival T/C
Experiment: NCI In Vivo Anticancer Drug Screen. Data for tumor model B16 Melanoma (intracerebral) in B6D2F1 (BDF1) mice
Settings: endpoint: median survival time, higher = longer survival
Procedure: The antitumor activity of compounds was measured in mice bearing transplantable tumors. Survival or tumor size were measured and the results are expressed as the measurement made in the treated group (T) divided by the measurement made in the vehicle treated control group (C). The tumor model used in this assay is B16 Melanoma (intracerebral) in B6D2F1 (BDF1) mice

[1] = dose: 6.25 mg/kg/injection, schedule: Q01DX009 (ip), vehicle: other
[2] = dose: 12.5 mg/kg/injection, schedule: Q01DX009 (ip), vehicle: other
[3] = dose: 25.0 mg/kg/injection, schedule: Q01DX009 (ip), vehicle: other
[4] = dose: 50.0 mg/kg/injection, schedule: Q01DX009 (ip), vehicle: other
[5] = dose: 8.0 mg/kg/injection, schedule: Q01DX009 (ip), vehicle: saline with Tween-80
[6] = dose: 16.0 mg/kg/injection, schedule: Q01DX009 (ip), vehicle: saline with Tween-80
[7] = dose: 32.0 mg/kg/injection, schedule: Q01DX009 (ip), vehicle: saline with Tween-80
[8] = dose: 64.0 mg/kg/injection, schedule: Q01DX009 (ip), vehicle: saline with Tween-80
[9] = dose: 2.0 mg/kg/injection, schedule: Q01DX009 (ip), vehicle: saline with Tween-80
[10] = dose: 4.0 mg/kg/injection, schedule: Q01DX009 (ip), vehicle: saline with Tween-80
[11] = dose: 25.0 mg/kg/injection, schedule: Q01DX009 (ip), vehicle: saline
[12] = dose: 25.0 mg/kg/injection, schedule: Q01DX009 (ip), vehicle: saline with Tween-80
[13] = dose: 100.0 mg/kg/injection, schedule: Q01DX009 (ip), vehicle: saline with Tween-80
[14] = dose: 100.0 mg/kg/injection, schedule: Q01DX009 (ip), vehicle: saline
[15] = dose: 200.0 mg/kg/injection, schedule: Q01DX009 (ip), vehicle: saline with Tween-80
[16] = dose: 12.5 mg/kg/injection, schedule: Q01DX009 (ip), vehicle: saline

SMILES: O=C1C(N2CC2)=C(N2CC2)C(=O)C(N2CC2)=C1N1CC1
- T/C (dose: 10.0 micrograms/kg/injection, schedule: Q01DX009 (ip), vehicle: saline): 120 % of control
- T/C (dose: 20.0 micrograms/kg/injection, schedule: Q01DX009 (ip), vehicle: saline): 107 % of control
- T/C (dose: 80.0 micrograms/kg/injection, schedule: Q01DX009 (ip), vehicle: saline): 95 % of control

SMILES: Cc1ccc2c(c1)Sc1ccc(N=NN(C)C)cc1N2C
- T/C [1]: 101 % of control
- T/C [2]: 116 % of control
- T/C [3]: 98 % of control
- T/C [4]: 116 % of control
- T/C (dose: 100.0 mg/kg/injection, schedule: Q01DX009 (ip), vehicle: other): 112 % of control

SMILES: CC(=O)OCC1C(=O)OCC1C(=O)N1Cc2cc3ccccc3nc2C1 (configuration not stated)
- T/C [5]: 111 % of control
- T/C [6]: 99 % of control
- T/C [7]: 103 % of control
- T/C [8]: 95 % of control
- T/C (dose: 128.0 mg/kg/injection, schedule: Q01DX009 (ip), vehicle: saline with Tween-80): 93 % of control

SMILES: O=NN(CCCl)C(=O)NC1CCC(=O)NC1=O (configuration not stated)
- T/C (dose: 0.5 mg/kg/injection, schedule: Q01DX009 (ip), vehicle: saline with Tween-80): 108 % of control
- T/C [9]: 153 % of control
- T/C [10]: 202 % of control
- T/C (dose: 4.32 mg/kg/injection, schedule: Q01DX001 (ip), vehicle: Klucel (hydroxypropylcellulose) (HPC)): 111 % of control
- T/C (dose: 6.48 mg/kg/injection, schedule: Q01DX001 (ip), vehicle: other): 120 % of control
- T/C (dose: 7.2 mg/kg/injection, schedule: Q01DX001 (ip), vehicle: Klucel (hydroxypropylcellulose) (HPC)): 122 % of control
- T/C [5]: 337 % of control
- T/C (dose: 11.9 mg/kg/injection, schedule: Q01DX001 (ip), vehicle: Klucel (hydroxypropylcellulose) (HPC)): 172 % of control
- T/C (dose: 12.0 mg/kg/injection, schedule: Q01DX001 (ip), vehicle: Klucel (hydroxypropylcellulose) (HPC)): 150 % of control
- T/C [6]: 89 % of control
- T/C (dose: 17.8 mg/kg/injection, schedule: Q01DX001 (ip), vehicle: Klucel (hydroxypropylcellulose) (HPC)): 201 % of control
- T/C (dose: 18.0 mg/kg/injection, schedule: Q01DX001 (ip), vehicle: other): 338 % of control
- T/C (dose: 20.0 mg/kg/injection, schedule: Q01DX001 (ip), vehicle: Klucel (hydroxypropylcellulose) (HPC)): 204 % of control
- T/C (dose: 26.7 mg/kg/injection, schedule: Q01DX001 (ip), vehicle: Klucel (hydroxypropylcellulose) (HPC)): 187 % of control
- T/C (dose: 40.0 mg/kg/injection, schedule: Q01DX001 (ip), vehicle: Klucel (hydroxypropylcellulose) (HPC)): 120 % of control

SMILES: CN(N=O)C(N)=O
- T/C (dose: 1.56 mg/kg/injection, schedule: Q01DX009 (ip), vehicle: saline): 118 % of control
- T/C (dose: 6.25 mg/kg/injection, schedule: Q01DX009 (ip), vehicle: saline): 112 % of control
- T/C [11]: 168 % of control

SMILES: CN(C)N=Nc1ccnc2ccc(I)cc12
- T/C (dose: 3.12 mg/kg/injection, schedule: Q01DX009 (ip), vehicle: other): 112 % of control
- T/C [1]: 110 % of control
- T/C [2]: 95 % of control
- T/C [3]: 110 % of control
- T/C [4]: 109 % of control

SMILES: CN=S(=O)(OCCCCCOS(=O)(=NC)c1ccccc1)c1ccccc1 (configuration not stated)
- T/C (dose: 6.25 mg/kg/injection, schedule: Q01DX009 (ip), vehicle: saline with Tween-80): 109 % of control
- T/C (dose: 12.5 mg/kg/injection, schedule: Q01DX009 (ip), vehicle: saline with Tween-80): 91 % of control
- T/C [12]: 100 % of control

SMILES: COC(COC(=O)N1CCN(C=O)CC1)C1=C(N2CC2)C(=O)C(C)=C(N2CC2)C1=O (configuration not stated)
- T/C (dose: 0.75 mg/kg/injection, schedule: Q01DX009 (ip), vehicle: saline): 103 % of control
- T/C (dose: 1.5 mg/kg/injection, schedule: Q01DX009 (ip), vehicle: saline): 105 % of control
- T/C (dose: 3.0 mg/kg/injection, schedule: Q01DX009 (ip), vehicle: saline): 114 % of control
- T/C (dose: 6.0 mg/kg/injection, schedule: Q01DX009 (ip), vehicle: saline): 86 % of control

SMILES: Cc1cn(C2CC(O)C(CO)O2)c(=O)[nH]c1=O (configuration not stated)
- T/C [13]: 102 % of control and 109 % of control
- T/C [14]: 100 % of control and 111 % of control
- T/C [15]: 105 % of control
- T/C (dose: 200.0 mg/kg/injection, schedule: Q01DX009 (ip), vehicle: saline): 103 % of control and 110 % of control
- T/C (dose: 400.0 mg/kg/injection, schedule: Q01DX009 (ip), vehicle: saline with Tween-80): 105 % of control
- T/C (dose: 400.0 mg/kg/injection, schedule: Q01DX009 (ip), vehicle: saline): 94 % of control and 101 % of control
- T/C (dose: 800.0 mg/kg/injection, schedule: Q01DX009 (ip), vehicle: saline with Tween-80): 124 % of control and 95 % of control
- T/C (dose: 800.0 mg/kg/injection, schedule: Q01DX009 (ip), vehicle: saline): 100 % of control and 107 % of control
- T/C (dose: 1600.0 mg/kg/injection, schedule: Q01DX009 (ip), vehicle: saline with Tween-80): 92 % of control and 94 % of control

SMILES: Cc1[nH]c(=O)[nH]c(=O)c1N(CCF)CCCl
- T/C (dose: 2.0 mg/kg/injection, schedule: Q01DX009 (ip), vehicle: water): 107 % of control
- T/C (dose: 4.0 mg/kg/injection, schedule: Q01DX009 (ip), vehicle: water): 104 % of control
- T/C (dose: 8.0 mg/kg/injection, schedule: Q01DX009 (ip), vehicle: water): 112 % of control
- T/C (dose: 16.0 mg/kg/injection, schedule: Q01DX009 (ip), vehicle: water): 104 % of control
- T/C (dose: 32.0 mg/kg/injection, schedule: Q01DX009 (ip), vehicle: water): 102 % of control

SMILES: COS(C)(=O)=O
- T/C (dose: 16.0 mg/kg/injection, schedule: Q01DX005 (ip), vehicle: saline): 89 % of control
- T/C (dose: 32.0 mg/kg/injection, schedule: Q01DX005 (ip), vehicle: saline): 100 % of control
- T/C (dose: 64.0 mg/kg/injection, schedule: Q01DX005 (ip), vehicle: saline): 95 % of control
- T/C (dose: 128.0 mg/kg/injection, schedule: Q01DX005 (ip), vehicle: saline): 106 % of control

SMILES: CCCCN(C)N=Nc1ccc([N+](=O)[O-])cc1C(N)=O
- T/C (dose: 32.0 mg/kg/injection, schedule: Q01DX005 (ip), vehicle: saline with Tween-80): 121 % of control
- T/C (dose: 64.0 mg/kg/injection, schedule: Q01DX005 (ip), vehicle: saline with Tween-80): 116 % of control
- T/C (dose: 256.0 mg/kg/injection, schedule: Q01DX005 (ip), vehicle: saline with Tween-80): 154 % of control
- T/C (dose: 512.0 mg/kg/injection, schedule: Q01DX005 (ip), vehicle: saline with Tween-80): 152 % of control

SMILES: CN(C)/N=N/c1nc[nH]c1C(N)=O
- T/C [16]: 116 % of control and 113 % of control
- T/C [12]: 105 % of control
- T/C [11]: 116 % of control and 122 % of control
- T/C (dose: 50.0 mg/kg/injection, schedule: Q01DX009 (ip), vehicle: saline with Tween-80): 111 % of control
- T/C (dose: 50.0 mg/kg/injection, schedule: Q01DX009 (ip), vehicle: saline): 109 % of control
- T/C [13]: 117 % of control
- T/C [14]: 122 % of control
- T/C [15]: 112 % of control

SMILES: CCN(CC)CCCC(C)Nc1c2ccc(Cl)cc2nc2ccc(OC)cc12 (configuration not stated)
- T/C (dose: 1.0 mg/kg/injection, schedule: Q01DX009 (ip), vehicle: saline with Tween-80): 96 % of control
- T/C [9]: 151 % of control
- T/C [10]: 122 % of control
- T/C [5]: 105 % of control and 107 % of control
- T/C [6]: 105 % of control
- T/C [7]: 105 % of control
- T/C [8]: 112 % of control

SMILES: COc1cc2c(c3c1c(=O)c1ccccc1n3C)C=CC(C)(C)O2
- T/C (dose: 16.0 mg/kg/injection, schedule: Q01DX005 (ip), vehicle: Klucel (hydroxypropylcellulose) (HPC)): 121 % of control
- T/C (dose: 32.0 mg/kg/injection, schedule: Q01DX005 (ip), vehicle: Klucel (hydroxypropylcellulose) (HPC)): 104 % of control
- T/C (dose: 64.0 mg/kg/injection, schedule: Q01DX005 (ip), vehicle: Klucel (hydroxypropylcellulose) (HPC)): 115 % of control

SMILES: O=C1C(=O)c2ccccc2C(O)=C1CC=C(Cl)Cl
- T/C (dose: 10.0 mg/kg/injection, schedule: Q01DX005 (ip), vehicle: Klucel (hydroxypropylcellulose) (HPC)): 101 % of control
- T/C (dose: 20.0 mg/kg/injection, schedule: Q01DX005 (ip), vehicle: Klucel (hydroxypropylcellulose) (HPC)): 98 % of control
- T/C (dose: 40.0 mg/kg/injection, schedule: Q01DX005 (ip), vehicle: Klucel (hydroxypropylcellulose) (HPC)): 106 % of control

SMILES: CNc1nc(N(C)C)nc(N(C)C)n1
- T/C [16]: 102 % of control and 106 % of control
